{
  "source": "PubChem BioAssay (NCI)",
  "experiment_in_all_cases": "NCI anticancer screen, dose series, 384-well format",
  "key": {"[1]": {"system": "CCRF-CEM leukemia"}, "[2]": {"system": "HL-60(TB) leukemia"}, "[3]": {"system": "MCF7 breast"}, "[4]": {"system": "NCI-H522 lung"}, "[5]": {"system": "MDA-MB-231 breast"}, "[6]": {"system": "A498 renal"}, "[7]": {"system": "UO-31 renal"}, "[8]": {"system": "HCC-2998 colon"}, "[9]": {"system": "DU-145 prostate"}, "[10]": {"system": "SK-OV-3 ovarian"}, "[11]": {"system": "TK-10 renal"}, "[12]": {"system": "UACC-257 melanoma"}, "[13]": {"system": "MALME-3M melanoma"}, "[14]": {"system": "HCT-15 colon"}, "[15]": {"system": "UACC-62 melanoma"}, "[16]": {"system": "SF-539 CNS"}, "[17]": {"system": "KM12 colon"}, "[18]": {"system": "MDA-MB-468 breast"}, "[19]": {"system": "MDA-MB-435 melanoma"}, "[20]": {"system": "RPMI-8226 leukemia"}, "[21]": {"system": "NCI-H23 lung"}, "[22]": {"system": "SN12C renal"}, "[23]": {"system": "SF-295 CNS"}, "[24]": {"system": "HOP-62 NSCLC"}, "[25]": {"system": "SK-MEL-28 melanoma"}, "[26]": {"system": "HOP-92 NSCLC"}, "[27]": {"system": "SK-MEL-2 melanoma"}, "[28]": {"system": "IGROV1 ovarian"}, "[29]": {"system": "SNB-75 CNS"}, "[30]": {"system": "HS 578T breast"}, "[31]": {"system": "OVCAR-5 ovarian"}, "[32]": {"system": "HCT-116 colon"}, "[33]": {"system": "SK-MEL-5 melanoma"}, "[34]": {"system": "COLO 205 colon"}, "[35]": {"system": "NCI-H322M lung"}, "[36]": {"system": "CAKI-1 renal"}, "[37]": {"system": "786-0 renal"}, "[38]": {"system": "OVCAR-3 ovarian"}, "[39]": {"system": "MOLT-4 leukemia"}, "[40]": {"system": "RXF 393 renal"}, "[41]": {"system": "EKVX NSCLC"}, "[42]": {"system": "BT-549 breast"}, "[43]": {"system": "T-47D breast"}, "[44]": {"system": "OVCAR-4 ovarian"}, "[45]": {"system": "NCI-H226 lung"}, "[46]": {"system": "A549 NSCLC"}, "[47]": {"system": "SW-620 colon"}},
  "note": "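GI50 marks 50% less growth. TGI denotes the concentration required for complete inhibition of growth.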",
  "data": [
    {"smiles": "C=CC(=O)N1CCC(CNc2ncnc(N)c2-c2ccc(Oc3ccccc3)cc2)CC1", "values": [
      {"measurement": "GI50", "setting": "[1]", "result": 17.2, "unit": "µM"},
      {"measurement": "TGI", "setting": "[1]", "result": 31, "unit": "µM"},
      {"measurement": "GI50", "setting": "[2]", "result": 11.8, "unit": "µM"},
      {"measurement": "TGI", "setting": "[2]", "result": 24, "unit": "µM"},
      {"measurement": "GI50", "setting": "[3]", "result": 25.7, "unit": "µM"},
      {"measurement": "TGI", "setting": "[3]", "result": 98.1, "unit": "µM"},
      {"measurement": "GI50", "setting": "[4]", "result": 4.12, "unit": "µM"},
      {"measurement": "TGI", "setting": "[4]", "result": 15.7, "unit": "µM"},
      {"measurement": "GI50", "setting": "[5]", "result": 20.4, "unit": "µM"},
      {"measurement": "TGI", "setting": "[5]", "result": 52.6, "unit": "µM"},
      {"measurement": "GI50", "setting": "[6]", "result": 17.2, "unit": "µM"},
      {"measurement": "TGI", "setting": "[6]", "result": 37, "unit": "µM"},
      {"measurement": "GI50", "setting": "[7]", "result": 22.3, "unit": "µM"},
      {"measurement": "TGI", "setting": "[7]", "result": "> 100", "unit": "µM"},
      {"measurement": "GI50", "setting": "[8]", "result": 18.7, "unit": "µM"},
      {"measurement": "TGI", "setting": "[8]", "result": 33.2, "unit": "µM"},
      {"measurement": "GI50", "setting": "[9]", "result": 19.5, "unit": "µM"},
      {"measurement": "TGI", "setting": "[9]", "result": 46.4, "unit": "µM"},
      {"measurement": "GI50", "setting": "[10]", "result": 16.2, "unit": "µM"},
      {"measurement": "TGI", "setting": "[10]", "result": 44.9, "unit": "µM"},
      {"measurement": "GI50", "setting": "[11]", "result": 18.3, "unit": "µM"},
      {"measurement": "TGI", "setting": "[11]", "result": 36.2, "unit": "µM"},
      {"measurement": "GI50", "setting": "[12]", "result": 18.1, "unit": "µM"},
      {"measurement": "TGI", "setting": "[12]", "result": 34.2, "unit": "µM"},
      {"measurement": "GI50", "setting": "[13]", "result": 30.5, "unit": "µM"},
      {"measurement": "TGI", "setting": "[13]", "result": "> 73.5", "unit": "µM"},
      {"measurement": "GI50", "setting": "[14]", "result": 23.6, "unit": "µM"},
      {"measurement": "TGI", "setting": "[14]", "result": 60, "unit": "µM"},
      {"measurement": "GI50", "setting": "[15]", "result": 16.6, "unit": "µM"},
      {"measurement": "TGI", "setting": "[15]", "result": 33.5, "unit": "µM"},
      {"measurement": "GI50", "setting": "[16]", "result": 20.9, "unit": "µM"},
      {"measurement": "TGI", "setting": "[16]", "result": "> 58.6", "unit": "µM"},
      {"measurement": "GI50", "setting": "[17]", "result": 23, "unit": "µM"},
      {"measurement": "TGI", "setting": "[17]", "result": 47.6, "unit": "µM"},
      {"measurement": "GI50", "setting": "[18]", "result": 10.6, "unit": "µM"},
      {"measurement": "TGI", "setting": "[18]", "result": 23.2, "unit": "µM"},
      {"measurement": "GI50", "setting": "[19]", "result": 28.7, "unit": "µM"},
      {"measurement": "TGI", "setting": "[19]", "result": "> 73.3", "unit": "µM"},
      {"measurement": "GI50", "setting": "[20]", "result": 9.92, "unit": "µM"},
      {"measurement": "TGI", "setting": "[20]", "result": 22.3, "unit": "µM"},
      {"measurement": "GI50", "setting": "[21]", "result": 20.3, "unit": "µM"},
      {"measurement": "TGI", "setting": "[21]", "result": 42.2, "unit": "µM"},
      {"measurement": "GI50", "setting": "[22]", "result": 17, "unit": "µM"},
      {"measurement": "TGI", "setting": "[22]", "result": 43, "unit": "µM"},
      {"measurement": "GI50", "setting": "[23]", "result": 26.1, "unit": "µM"},
      {"measurement": "TGI", "setting": "[23]", "result": "> 71.1", "unit": "µM"},
      {"measurement": "GI50", "setting": "[24]", "result": 20.7, "unit": "µM"},
      {"measurement": "TGI", "setting": "[24]", "result": 48.3, "unit": "µM"},
      {"measurement": "GI50", "setting": "[25]", "result": 36.4, "unit": "µM"},
      {"measurement": "TGI", "setting": "[25]", "result": "> 86.9", "unit": "µM"},
      {"measurement": "GI50", "setting": "[26]", "result": 15.2, "unit": "µM"},
      {"measurement": "TGI", "setting": "[26]", "result": 39.1, "unit": "µM"},
      {"measurement": "GI50", "setting": "[27]", "result": 20.5, "unit": "µM"},
      {"measurement": "TGI", "setting": "[27]", "result": 36.9, "unit": "µM"},
      {"measurement": "GI50", "setting": "[28]", "result": 14.6, "unit": "µM"},
      {"measurement": "TGI", "setting": "[28]", "result": 28.3, "unit": "µM"},
      {"measurement": "GI50", "setting": "[29]", "result": 15, "unit": "µM"},
      {"measurement": "TGI", "setting": "[29]", "result": 36.5, "unit": "µM"},
      {"measurement": "GI50", "setting": "[30]", "result": 11.4, "unit": "µM"},
      {"measurement": "TGI", "setting": "[30]", "result": 24.5, "unit": "µM"},
      {"measurement": "GI50", "setting": "[31]", "result": 38.1, "unit": "µM"},
      {"measurement": "TGI", "setting": "[31]", "result": "> 100", "unit": "µM"},
      {"measurement": "GI50", "setting": "[32]", "result": 21.1, "unit": "µM"},
      {"measurement": "TGI", "setting": "[32]", "result": 48.3, "unit": "µM"},
      {"measurement": "GI50", "setting": "[33]", "result": 16.1, "unit": "µM"},
      {"measurement": "TGI", "setting": "[33]", "result": 30.6, "unit": "µM"},
      {"measurement": "GI50", "setting": "[34]", "result": 22.5, "unit": "µM"},
      {"measurement": "TGI", "setting": "[34]", "result": 49.9, "unit": "µM"},
      {"measurement": "GI50", "setting": "[35]", "result": 20.4, "unit": "µM"},
      {"measurement": "TGI", "setting": "[35]", "result": "> 69.2", "unit": "µM"},
      {"measurement": "GI50", "setting": "[36]", "result": 16.9, "unit": "µM"},
      {"measurement": "TGI", "setting": "[36]", "result": 43.1, "unit": "µM"},
      {"measurement": "GI50", "setting": "[37]", "result": 18.7, "unit": "µM"},
      {"measurement": "TGI", "setting": "[37]", "result": 42.9, "unit": "µM"},
      {"measurement": "GI50", "setting": "[38]", "result": 16.1, "unit": "µM"},
      {"measurement": "TGI", "setting": "[38]", "result": 30.5, "unit": "µM"},
      {"measurement": "GI50", "setting": "[39]", "result": 14.5, "unit": "µM"},
      {"measurement": "TGI", "setting": "[39]", "result": 27.7, "unit": "µM"},
      {"measurement": "GI50", "setting": "[40]", "result": 15.1, "unit": "µM"},
      {"measurement": "TGI", "setting": "[40]", "result": 36.6, "unit": "µM"},
      {"measurement": "GI50", "setting": "[41]", "result": 20.1, "unit": "µM"},
      {"measurement": "TGI", "setting": "[41]", "result": 48.7, "unit": "µM"},
      {"measurement": "GI50", "setting": "[42]", "result": 14.1, "unit": "µM"},
      {"measurement": "TGI", "setting": "[42]", "result": 28.6, "unit": "µM"},
      {"measurement": "GI50", "setting": "[43]", "result": 17.7, "unit": "µM"},
      {"measurement": "TGI", "setting": "[43]", "result": 46.6, "unit": "µM"},
      {"measurement": "GI50", "setting": "[44]", "result": 21.2, "unit": "µM"},
      {"measurement": "TGI", "setting": "[44]", "result": 69.7, "unit": "µM"},
      {"measurement": "GI50", "setting": "[45]", "result": 15.6, "unit": "µM"},
      {"measurement": "TGI", "setting": "[45]", "result": 36, "unit": "µM"},
      {"measurement": "GI50", "setting": "[46]", "result": 21, "unit": "µM"},
      {"measurement": "TGI", "setting": "[46]", "result": 55.4, "unit": "µM"},
      {"measurement": "GI50", "setting": "[47]", "result": 18.6, "unit": "µM"},
      {"measurement": "TGI", "setting": "[47]", "result": 34, "unit": "µM"}
    ]}
  ]
}
